The source of these data is patent publication US8791148B2, “Substituted benzimidazolone derivatives, medicaments comprising them and their use” (AbbVie Deutschland GmbH & Co. KG, priority 2006, dated 2014).

Each structure is given as a SMILES string.

The target of the assay is T1, human vasopressin V1b receptor (Homo sapiens, UniProt P47901).
T1 construct: expressed in transfected cells; host or cells: CHO-K1 (cell line hV1b-3H2_CHO), membrane preparation
T1 sequence (P47901 1-424): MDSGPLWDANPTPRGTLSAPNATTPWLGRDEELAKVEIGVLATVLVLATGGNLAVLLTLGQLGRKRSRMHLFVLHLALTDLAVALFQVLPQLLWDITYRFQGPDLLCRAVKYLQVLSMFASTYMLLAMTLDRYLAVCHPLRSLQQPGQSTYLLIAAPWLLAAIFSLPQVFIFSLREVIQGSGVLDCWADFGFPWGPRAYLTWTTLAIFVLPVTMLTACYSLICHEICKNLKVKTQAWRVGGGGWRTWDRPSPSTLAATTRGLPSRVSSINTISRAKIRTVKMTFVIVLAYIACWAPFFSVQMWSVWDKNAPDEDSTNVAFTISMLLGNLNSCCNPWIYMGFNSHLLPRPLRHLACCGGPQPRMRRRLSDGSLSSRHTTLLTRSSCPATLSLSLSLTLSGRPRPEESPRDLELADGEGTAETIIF
The assay can be described thus: Vasopressin V1b receptor binding assay. Particulars: membranes from CHO-K1 cells with stably expressed human V1b receptors; displacement of 1.5 nM 3H-AVP; read-out: V1b receptor affinity (affinity constant Ki). The method, boiled down: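 Membranes expressing human V1b receptor were incubated with radioligand and test compound (2% DMSO final) in 50 mM Tris, 10 mM MgCl2, 0.1% BSA, pH 7.4, for 60 min at room temperature, in triplicate. 1 uM AVP defined nonspecific binding. Bound ligand was separated by filtration and counted by scintillation; Ki came from nonlinear regression.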
Consider `COc1ccc(S(=O)(=O)n2c(=O)n(C(C(=O)N3CCN(C4CCN(C)CC4)CC3)c3cccc(OC)c3)c3cc(Cl)ccc32)cc1` (stereo not drawn) [Example 19, 5-Chloro-1-(4-methoxybenzenesulfonyl)-3-{1-(3-methoxyphenyl)-2-[4-(1-methylpiperidin-4-yl)piperazin-1-yl]-2-oxo-ethyl}-1,3-dihydrobenzimidazol-2-one], for which the Ki fell in the range of 0.1 to 0.5 µM. Under `COc1ccc(S(=O)(=O)n2c(=O)n(C(C(=O)NCc3ccccc3)c3ccccc3)c3cc(Cl)ccc32)cc1` (stereo not drawn) [Example 100, N-Benzyl-2-[6-chloro-3-(4-methoxybenzenesulfonyl)-2-oxo-2,3-dihydrobenzimidazol-1-yl]-2-phenylacetamide] stands 0.5 to 10 µM; under `CCN1CCN([C@H]2CCN(C(=O)C(c3ccccc3)n3c(=O)n(S(=O)(=O)c4ccc(OC)cc4)c4ccc(Cl)cc43)C2)CC1` (stereo partly drawn) [Example 152, 5-Chloro-3-{2-[(S)-3-(4-ethylpiperazin-1-yl)pyrrolidin-1-yl]-2-oxo-1-phenylethyl}-1-(4-methoxybenzenesulfonyl)-1,3-dihydrobenzimidazol-2-one], below 0.1 µM; under `O=C(C(c1ccccc1)n1c(=O)n(S(=O)(=O)c2ccc(C(F)(F)F)cc2)c2ccc(Cl)cc21)N1CCN(c2ccncc2)CC1` (stereo not drawn) [Example 49, 5-Chloro-3-[2-oxo-1-phenyl-2-(4-pyridin-4-ylpiperazin-1-yl)ethyl]-1-(4-trifluoromethylbenzenesulfonyl)-1,3-dihydrobenzimidazol-2-one], 0.5 to 10 µM. Under `COc1ccccc1C(C(=O)N1CCN(c2ccncc2)CC1)n1c(=O)n(S(=O)(=O)c2ccc(C#N)cc2)c2ccc(Cl)cc21` (stereo not drawn) [Example 14, 4-{5-Chloro-3-[1-(2-methoxyphenyl)-2-oxo-2-(4-pyridin-4-ylpiperazin-1-yl)ethyl]-2-oxo-2,3-dihydrobenzimidazole-1-sulfonyl}benzonitrile] stands 0.5 to 10 µM; under `COc1ccc(S(=O)(=O)n2c(=O)n(C(C(=O)N3CCC(c4ccncc4)C3)c3ccccc3)c3cc(Cl)ccc32)cc1` (stereo not drawn) [Example 92, 5-Chloro-1-(4-methoxybenzenesulfonyl)-3-[2-oxo-1-phenyl-2-(3-pyridin-4-yl-pyrrolidin-1-yl)ethyl]-1,3-dihydrobenzimidazol-2-one], 0.1 to 0.5 µM. On to `COc1ccc(S(=O)(=O)n2c(=O)n(C(C(=O)NCCCN3CCOCC3)c3ccccc3)c3cc(Cl)ccc32)cc1` (stereo not drawn) [Example 113, 2-[6-Chloro-3-(4-methoxybenzenesulfonyl)-2-oxo-2,3-dihydrobenzimidazol-1-yl]-N-(3-morpholin-4-yl-propyl)-2-phenyl-acetamide], for which the Ki lay within 0.5 to 10 µM.

On to `O=C(C(c1ccccc1)n1c(=O)n(S(=O)(=O)c2ccsc2)c2ccc(Cl)cc21)N1CCN(c2ccncc2)CC1` (stereo not drawn) [Example 5, 5-Chloro-3-[2-oxo-1-phenyl-2-(4-pyridin-4-ylpiperazin-1-yl)ethyl]-1-(thiophene-3-sulfonyl)-1,3-dihydrobenzimidazol-2-one], for which the Ki was 0.1 to 0.5 µM. In the case of `CN1CCC(N2CCN(C(=O)C(c3ccccc3)n3c(=O)n(S(=O)(=O)c4ccc(C#N)cc4)c4ccc(Cl)cc43)CC2)CC1` (stereo not drawn) [Example 68, 4-(5-Chloro-3-{2-[4-(1-methylpiperidin-4-yl)piperazin-1-yl]-2-oxo-1-phenylethyl}-2-oxo-2,3-dihydrobenzimidazol-1-sulfonyl)benzonitrile], the Ki is 0.1 to 0.5 µM. Consider `COc1ccc(S(=O)(=O)n2c(=O)n(C(C(=O)N3CCCC3)c3ccccc3)c3cc(Cl)ccc32)cc1` (stereo not drawn) [Example 102, 5-Chloro-1-(4-methoxybenzenesulfonyl)-3-(2-oxo-1-phenyl-2-pyrrolidin-1-ylethyl)-1,3-dihydrobenzimidazol-2-one], for which the Ki is 0.1 to 0.5 µM. Regarding `O=C(C(c1ccccc1)n1c(=O)n(S(=O)(=O)c2cccc3cccnc23)c2ccc(Cl)cc21)N1CCN(c2ccncc2)CC1` (stereo not drawn) [Example 53, 5-Chloro-3-[2-oxo-1-phenyl-2-(4-pyridin-4-ylpiperazin-1-yl)ethyl]-1-(quinoline-8-sulfonyl)-1,3-dihydrobenzimidazol-2-one], the Ki is below 0.1 µM. As to `COc1ccc(S(=O)(=O)n2c(=O)n(C(C(=O)N3CCC(N)C3)c3ccccc3)c3cc(Cl)ccc32)cc1` (stereo not drawn) [Example 166, 3-[2-(3-Aminopyrrolidin-1-yl)-2-oxo-1-phenylethyl]-5-chloro-1-(4-methoxybenzenesulfonyl)-1,3-dihydrobenzimidazol-2-one], the Ki fell in the range of 0.1 to 0.5 µM. With `COc1ccc(S(=O)(=O)n2c(=O)n(C(C(=O)N3CC[C@@H](N4CCN(Cc5ccccc5)CC4)C3)c3ccccc3)c3cc(C#N)ccc32)cc1` (stereo partly drawn) [Example 144, 3-{2-[(R)-3-(4-Benzylpiperazin-1-yl)-pyrrolidin-1-yl]-2-oxo-1-phenylethyl}-1-(4-methoxybenzenesulfonyl)-2-oxo-2,3-dihydro-1H-benzimidazole-5-carbonitrile], the inhibition constant (Ki) fell in the range of 0.5 to 10 µM.

As for `COc1ccc(S(=O)(=O)n2c(=O)n(C(C(=O)N3CCCC(N)C3)c3ccccc3)c3cc(Cl)ccc32)cc1` (stereo not drawn) [Example 167, 3-[2-(3-Aminopiperidin-1-yl)-2-oxo-1-phenylethyl]-5-chloro-1-(4-methoxybenzenesulfonyl)-1,3-dihydrobenzimidazol-2-one], the Ki was below 0.1 µM.

Take `COc1cc(C)ccc1S(=O)(=O)n1c(=O)n(C(C(=O)N2CCN(c3ccncc3)CC2)c2ccccc2)c2cc(Cl)ccc21` (stereo not drawn) [Example 43, 5-Chloro-1-(2-methoxy-4-methyl-benzenesulfonyl)-3-[2-oxo-1-phenyl-2-(4-pyridin-4-ylpiperazin-1-yl)ethyl]-1,3-dihydrobenzimidazol-2-one]: the Ki fell in the range of 0.5 to 10 µM. In the case of `COc1ccc(S(=O)(=O)n2c(=O)n(C(C(=O)N3CCC[C@@H](NC4CCN(C(C)C)CC4)C3)c3ccccc3)c3cc(C#N)ccc32)cc1` (stereo partly drawn) [Example 249, 3-{2-[(R)-3-(1-Isopropyl-piperidin-4-ylamino)-piperidin-1-yl]-2-oxo-1-phenylethyl}-1-(4-methoxy-benzenesulfonyl)-2-oxo-2,3-dihydro-1H-benzoimidazole-5-carbonitrile], the Ki is below 0.1 µM. Consider `CCCN1CCN([C@H]2CCN(C(=O)C(c3ccccc3)n3c(=O)n(S(=O)(=O)c4cccc5cccnc45)c4ccc(C#N)cc43)C2)CC1` (stereo partly drawn) [Example 200, 2-oxo-3-{2-oxo-1-phenyl-2-[(S)-3-(4-propylpiperazin-1-yl)pyrrolidin-1-yl]-ethyl}-1-(quinoline-8-sulfonyl)-2,3-dihydro-1H-benzimidazole-5-carbonitrile], for which the inhibition constant (Ki) lay within 0.5 to 10 µM. For the compound `COc1ccc(S(=O)(=O)n2c(=O)n(C(C(=O)N3CC[C@@H](N4CCN(Cc5ccccc5)CC4)C3)c3ccccc3)c3cc(Cl)ccc32)cc1` (stereo partly drawn) [Example 142, 3-{2-[(R)-3-(4-Benzylpiperazin-1-yl)-pyrrolidin-1-yl]-2-oxo-1-phenylethyl}-5-chloro-1-(4-methoxybenzenesulfonyl)-1,3-dihydrobenzimidazol-2-on], the Ki was 0.1 to 0.5 µM.

As to `O=C(C(c1ccccc1)n1c(=O)n(S(=O)(=O)c2ccc(OC(F)(F)F)cc2)c2ccc(Cl)cc21)N1CCN(c2ccncc2)CC1` (stereo not drawn) [Example 42, 5-Chloro-3-[2-oxo-1-phenyl-2-(4-pyridin-4-ylpiperazin-1-yl)ethyl]-1-(4-trifluoromethoxybenzenesulfonyl)-1,3-dihydrobenzimidazol-2-one], the Ki was 0.5 to 10 µM. As to `O=C(C(c1ccccc1)n1c(=O)n(S(=O)(=O)c2cccc3cccnc23)c2cc(Cl)c(Cl)cc21)N1CCN(c2ccncc2)CC1` (stereo not drawn) [Example 40, 5,6-Dichloro-1-[2-oxo-1-phenyl-2-(4-pyridin-4-ylpiperazin-1-yl)ethyl]-3-(quinoline-8-sulfonyl)-1,3-dihydrobenzimidazol-2-one], the Ki lay in the range of 0.5 to 10 µM. Under `COc1ccc(S(=O)(=O)n2c(=O)n(C(C(=O)N3CCC[C@H](NC4CCN(C)CC4)C3)c3ccccc3)c3cc(C#N)ccc32)cc1` (stereo partly drawn) [Example 246, 1-(4-Methoxy-benzenesulfonyl)-3-{2-[(S)-3-(1-methyl-piperidin-4-ylamino)-piperidin-1-yl]-2-oxo-1-phenyl-ethyl}-2-oxo-2,3-dihydro-1H-benzoimidazole-5-carbonitrile] stands 0.1 to 0.5 µM; under `COc1ccc(S(=O)(=O)n2c(=O)n(C(C(=O)N3CCN(c4cccnc4)CC3)c3ccccc3)c3cc(Cl)ccc32)cc1` (stereo not drawn) [Example 94, 5-Chloro-1-(4-methoxybenzenesulfonyl)-3-[2-oxo-1-phenyl-2-(4-pyridin-3-ylpiperazin-1-yl)ethyl]-1,3-dihydrobenzimidazol-2-one], 0.5 to 10 µM. Turning to `COc1ccc(S(=O)(=O)n2c(=O)n(C(C(=O)N3CCN(C4CCN(C)CC4)CC3)c3ccccc3OC)c3cc(Cl)ccc32)c(OC)c1` (stereo not drawn) [Example 8, 5-Chloro-1-(2,4-dimethoxybenzenesulfonyl)-3-{1-(2-methoxyphenyl)-2-[4-(1-methylpiperidin-4-yl)piperazin-1-yl]-2-oxoethyl}-1,3-dihydrobenzimidazol-2-one], the Ki lay within 0.5 to 10 µM. Consider `COc1ccc(S(=O)(=O)n2c(=O)n(C(C(=O)N3CCN(c4ccccc4)CC3)c3ccccc3)c3cc(Cl)ccc32)cc1` (stereo not drawn) [Example 105, 5-Chloro-1-(4-methoxybenzenesulfonyl)-3-[2-oxo-1-phenyl-2-(4-phenylpiperazin-1-yl)ethyl]-1,3-dihydrobenzimidazol-2-one], for which the Ki lay in the range of 0.5 to 10 µM.

As usually defined, the Ki is a dissociation constant, usually derived from enzyme kinetics or from competition with a known ligand.
